Test results: patent US20240091242A1, “LIPIDS THAT REDUCE LUNG DAMAGE, IMPROVE PULMONARY FUNCTION AND DECREASE PRO-INFLAMMATORY CYTOKINES” (Signpath Pharma, Inc., priority 2021, published 2024)

Tested on: pro-inflammatory cytokines in the BALF
Assay: Multiplex analysis of cytokine levels in BALF, murine LPS ARDS model
Format: in vivo, mouse
Conditions: for IL1-alpha level in BALF / IP-10 level in BALF / MIG level in BALF: in pg/mL (unit assumed)
Source text: C57B16/N mice were obtained from Charles River Laboratories (Montreal, Quebec). Male mice, 20-25 g of body weight, were used throughout the studies. Animals were housed in specific pathogen[…]free conditions, and all experiments were approved by Institutional Animal Care and Use Committee (IPST_SL20200402-1). Animal studies are reported in compliance with […] guidelines.
All delivered mice were kept for one week as an acclimatization period prior to performing any experiments. Animals were housed in a maximum of two mice per cage under a 12[…]h light/12[…]h dark cycle at a temperature of ˜20-22° C. and 40-60% humidity. Food and water were available ad libitum. Each cage of mice was blindly assigned for different treatments or maintained as a control group according to the experimental design. The individual who carried out the experiments was not blinded as to treatment, but data analysis and experiments were otherwise blinded to avoid any bias.
In the ARDS group, mice received Escherichia coli O111:B4 lipopolysaccharide (50 μg in 0.05 mL saline, i.t.), while, in the control group, the animals received an instillation of saline (0.05 mL, i.t.). For intratracheal instillation, mice were slightly anesthetized with isoflurane.
The lipid SPPCT-800 was dissolved in water (low dose—2 mg/ml; high dose—20 mg/ml). For the 24-hour study, two treatment approaches were used. Mice received a single dose of SPPCT-800 (200 mg/kg, per gavage) as prevention (30 minutes before the LPS instillation), or as a single dose of either 20 mg/kg or 200 mg/kg as therapy (3-hour after the LPS instillation). For the 72-hour study, mice received a total of 8 treatments of SPPCT-800 (200 mg/kg) starting at 3-hour after the LPS instillation. Disease progression in mice was assessed by the evaluation of pulmonary functions, blood oxygen saturation, and body weight change. On the terminal day of each study (24 hours or 72 hours), measurement of cytokine levels in the plasma and BALF, and histopathology evaluations were done.
Differential Cell Counts in BALF. The left lung was clamped while 0.9 mL of cold PBS 1×, Protease Inhibitor 1× (SigmaFast®) solution (3×300 μL) was injected so bronchoalveolar lavage fluid (BALF) from the right lobe of the lungs could be collected. The protein assay was performed according to the manufacturer's instruction BCA Protein Assay (Pierce™-#23227). Briefly, a dilution factor of 5 was used (1 part of BALF: 4 part of PBS 1×). 10 μL, of the diluted sample was added into the microplate wells. 200 μL of the working reagent was added into each well. The plate was covered, incubated at 37° C. for 30 minutes. After a cool-down period, the absorbance at 562 nm was rapidly measured using a monochromatic spectrophotometer (SpectraMAX ® plus—Molecular Devices). The total BALF protein content was reported by multiplying the protein concentration by the dilution factor, and then multiplying by the total of BALF volume collected.
Multiplex analysis of mediators. The inventors quantified 31 different mediators in the BALF and plasma by using a Discovery Assay® (Mouse Cytokine and Chemokine Array 31-Plex (MD31), Eve Technologies Corp, Calgary, AB, Canada). The multiplex assay was performed at Eve Technologies using the Bio-Plex™ 200 system (Bio-Rad Laboratories, Inc., Hercules, CA, USA) and a Milliplex Mouse Cytokine/Chemokine kit (Millipore, St. Charles, MO, USA) according to Eve Tech protocol. The 31-plex consisted of Eotaxin, G-CSF, GM-CSF, IFN-γ, IL-1α, IL-1β, IL-2, IL-3, IL-4, IL-5, IL-6, IL-7, IL-9, IL-10, IL-12 (p40), IL-12 (p70), IL-13, IL-15, IL-17, IP-10, KC, LIF, MCP-1, M-CSF, MIG, MIP-1α, MIP-1β, MIP-2,RANTES, TNFα, and VEGF. The assay sensitivities of these markers range from 0.1 pg/mL to 33.3 pg/mL. Individual analytes' values and other assay details are available on Eve Technologies' website and in the Milliplex protocol.
Statistical Analysis. Results are expressed as means±SEM. […]

[1] = 24-hours, Pre: SPP4040 30 minutes before LPS
[2] = 24-hours, Thera: SPP4040 3 hours after LPS
[3] = 72-hours, Thera: eight SPP4040 injections over 72 hours after LPS

CCCCCCCCCCCCCC(=O)OCC(COP(=O)([O-])OCC(COC(=O)CCC)OC(=O)CCC)OC(=O)CCCCCCCCCCCCC.CCCCCCCCCCCCCC(=O)OCC(COP(=O)([O-])OCC(COC(=O)CCC)OC(=O)CCC)OC(=O)CCCCCCCCCCCCC.[Mg+2] (stereo not shown) [SPPCT-800]
Eotaxin level in BALF [1]: 10 ± 1
G-CSF level in BALF [1]: 6468 ± 381
GM-CSF level in BALF [1]: 26 ± 5
IFN gamma level in BALF [1]: 2 ± 1
IL1-beta level in BALF [1]: 69 ± 9
IL2 level in BALF [1]: 1.5 ± 0.2
IL3 level in BALF [1]: 0.4 ± 0.1
IL4 level in BALF [1]: 0.08 ± 0.01
IL5 level in BALF [1]: 10 ± 3
IL6 level in BALF [1]: 856 ± 188
IL7 level in BALF [1]: 1.7 ± 0.3
IL9 level in BALF [1]: 7.0 ± 0.3
IL10 level in BALF [1]: 1.4 ± 0.3
IL12 (p40) level in BALF [1]: 1.6 ± 0.3
IL12 (p70) level in BALF [1]: 7.4 ± 1.0
IL13 level in BALF [1]: 0.7 ± 0.1
IL15 level in BALF [1]: 5.1 ± 0.8
IL17 level in BALF [1]: 8.3 ± 3.2
KC level in BALF [1]: 622 ± 89
LIF level in BALF [1]: 38 ± 8
LIX level in BALF [1]: 94 ± 6
M-CSF level in BALF [1]: 21 ± 3
MCP-1 level in BALF [1]: 462 ± 103
MIP-1alpha level in BALF [1]: 323 ± 52
MIP-1beta level in BALF [1]: 801 ± 208
MIP-2 level in BALF [1]: 771 ± 107
RANTES level in BALF [1]: 45 ± 6
TNF-alpha level in BALF [1]: 91 ± 32
VEGF level in BALF [1]: 33 ± 2
IL1-alpha level in BALF [1]: 183 ± 25
IP-10 level in BALF [1]: 125 ± 10
MIG level in BALF [1]: 6.8 ± 1.5
Eotaxin level in BALF [2]: 14 ± 3
G-CSF level in BALF [2]: 7060 ± 853
GM-CSF level in BALF [2]: 46 ± 9
IFN gamma level in BALF [2]: 3 ± 1
IL1-beta level in BALF [2]: 103 ± 18
IL2 level in BALF [2]: 1.5 ± 0.3
IL3 level in BALF [2]: 0.5 ± 0.1
IL4 level in BALF [2]: 0.10 ± 0.01
IL5 level in BALF [2]: 10 ± 2
IL6 level in BALF [2]: 850 ± 212
IL7 level in BALF [2]: 1.7 ± 0.2
IL9 level in BALF [2]: 8.8 ± 1.3
IL10 level in BALF [2]: 1.4 ± 0.3
IL12 (p40) level in BALF [2]: 2.0 ± 0.3
IL12 (p70) level in BALF [2]: 6.0 ± 1.0
IL13 level in BALF [2]: 1.1 ± 0.2
IL15 level in BALF [2]: 3.1 ± 0.7
IL17 level in BALF [2]: 13.6 ± 5.6
KC level in BALF [2]: 1017 ± 140
LIF level in BALF [2]: 39 ± 12
LIX level in BALF [2]: 67 ± 20
M-CSF level in BALF [2]: 27 ± 6
MCP-1 level in BALF [2]: 494 ± 103
MIP-1alpha level in BALF [2]: 564 ± 132
MIP-1beta level in BALF [2]: 1924 ± 812
MIP-2 level in BALF [2]: 1054 ± 106
RANTES level in BALF [2]: 46 ± 6
TNF-alpha level in BALF [2]: 153 ± 32
VEGF level in BALF [2]: 34 ± 2
IL1-alpha level in BALF [2]: 331 ± 67
IP-10 level in BALF [2]: 163 ± 33
MIG level in BALF [2]: 6.6 ± 2.0
TNF-α levels in the BALF (in words) (72-hour study, p=0.0613): markedly reduced
Eotaxin level in BALF [3]: 6 ± 2
G-CSF level in BALF [3]: 1233 ± 572
GM-CSF level in BALF [3]: 9 ± 1
IFN gamma level in BALF [3]: 12 ± 1
IL1-beta level in BALF [3]: 89 ± 24
IL2 level in BALF [3]: 1.7 ± 0.4
IL3 level in BALF [3]: 0.5 ± 0.2
IL4 level in BALF [3]: 0.24 ± 0.05
IL5 level in BALF [3]: 0.4 ± 0.1
IL6 level in BALF [3]: 276 ± 151
IL7 level in BALF [3]: 2.0 ± 0.5
IL9 level in BALF [3]: 8.5 ± 1.6
IL10 level in BALF [3]: 1.1 ± 0.5
IL12 (p40) level in BALF [3]: 6.0 ± 1.2
IL12 (p70) level in BALF [3]: 15.7 ± 3.9
IL13 level in BALF [3]: 1.1 ± 0.2
IL15 level in BALF [3]: 4.8 ± 2.6
IL17 level in BALF [3]: 53.2 ± 26.9
KC level in BALF [3]: 216 ± 15
LIF level in BALF [3]: 11 ± 7
LIX level in BALF [3]: 25 ± 18
M-CSF level in BALF [3]: 11 ± 1
MCP-1 level in BALF [3]: 84 ± 34
MIP-1alpha level in BALF [3]: 1676 ± 554
MIP-1beta level in BALF [3]: 1561 ± 440
MIP-2 level in BALF [3]: 2649 ± 898
RANTES level in BALF [3]: 57 ± 20
TNF-alpha level in BALF [3]: 62 ± 17
VEGF level in BALF [3]: 11 ± 3
IL1-alpha level in BALF [3]: 576 ± 169
IP-10 level in BALF [3]: 1583 ± 385
MIG level in BALF [3]: 749.7 ± 186.7
MIP-1α and MIP 1-β in the BALF (in words) (at 24 hours): Suppressive effects
GM-CSF in the BALF (in words) (at 24 hours, 200 mg/kg preventive, 20 mg/kg therapeutic and 200 mg/kg therapeutic, P<0.001): highly significant depressions
IFN-γ levels in the BALF (in words) (at 24 hours, P<0.001): profoundly depressed
TNF-α in the BALF (in words) (at 24 hours, P=0.0959): markedly reduced
IL-1β, IL-2, IL-3, IL-4, IL-5, IL-7, IL-9, IL-10, IL-12 (p40), IL-12 (p70), IL-13 and IL-15 in the BALF (in words) (at 24 hours, with the exception of IL-6): major reductions
IFN-γ levels in the BALF (in words) (at 72 hours): Large reductions
MCP-1 in the BALF (in words) (at 72 hours): inhibited
GM-CSF in the BALF (in words) (at 72 hours, P<0.001): significant decreases
G-CSF, VEGF, KC, LIF, LIX and M-CSF in the BALF (in words) (mouse, in vivo): suppressed
